Ends that are not written are not given here.
Legend:
RGNNV [1] = test: RGNNV in vivo bath challenge of European sea bass with peptide injection after infection; parameters: species or system European sea bass (Dicentrarchus labrax); details: for Relative percent survival (RPS): juvenile sea bass, bath infection 3.16 × 10^4 TCID₅₀ RGNNV/mL for 2 h, then intramuscular injection 1 µg peptide/g, 23 dpi, infected PBS group 63.6% survival; for RGNNV cp gene expression in the brain / RGNNV rdrp gene expression in the brain: qPCR relative to ef1a, 2 dpi, n = 6, 1 µg peptide/g i.m. after RGNNV bath challenge; for RGNNV cp gene expression in the brain: Fig. 5A; for RGNNV rdrp gene expression in the brain: Fig. 5B
Protocol: RGNNV In vivo Challenge of European Sea Bass
A total of 375 sea bass were randomly assigned to eight experimental groups (in duplicate) and acclimated for 15 days. Seven groups were infected by immersion (10 L; 3.16 × 10^4 TCID₅₀ RGNNV/mL; 2 h), while a mock-infected control received conditioned medium. […] Combinations were selected according to the results obtained in the competitive in vitro assay against RGNNV (see below). Disease signs and mortalities were monitored daily for 23 days post-infection (dpi) using a four-rank scale (Valero et al. [2021a]). Fish (n = 6/group/time-point) were sampled at 2 and 23 dpi, euthanized with clove oil, bled, and weighed. Brain, NNV target tissue, and head-kidney, major hematopoietic tissue in fish, were dissected, frozen in TRIzol (Life Technologies), and stored at − 80 °C.
For viral load analysis, total RNA was extracted from sea bass brain and head-kidney using TRIzol (Life Technologies) and from E − 11 cells using the GenJET RNA Purification Kit (Thermo Fisher Scientific), following manufacturer protocols. One microgram of RNA was DNAse I-treated (1 U/µL; Thermo Scientific), and cDNA was synthesized using Superscript IV Reverse Transcriptase (Invitrogen). qPCR was performed on a QuantStudio 5 Flex (Applied Biosystems) to quantify cp, rdrp and mx genes using PowerUp SYBR Green reagents (Applied Biosystems). The protocol included a 95 °C hold, then 40 cycles (95 °C; 15 s) and 60 °C for 1 min. Relative expression was calculated using the 2^⁻ΔCt method (Livak and Schmittgen [2001]), with ef1a as the endogenous control. Primers (Supplementary Data S2) were validated by melting curve analysis and negative controls.
Fish mortality was analysed using Kaplan–Meier survival curves with log-rank (Mantel–Cox) tests for significance. Relative gene expression was evaluated by one-way ANOVA (p ≤ 0.05) followed by Tukey’s test. Viral kinetics were compared between P4-treated and untreated groups using Student’s t-test (p ≤ 0.05) at specific time points. All analyses were performed with IBM SPSS Statistics 20.
Fig. 4 Therapeutic administration of synthetic peptides improves survival and symptomatology in […] (RGNNV)-infected European sea bass juveniles. […] A mock-infected group was treated twice with only PBS. (A) Kaplan–Meier survival curves; (B) Heat-map representing the cumulated number of fish showing clinical signs of VER disease attending to their severity: (1) changes of the color of the skin, slower rhythm of swimming and/or slower reaction to external stimuli as feeding; (2) alterations in the swimming balance and/or erratic swimming spasms; (3) continuous erratic swimming; and (4) complete incapacity to keep balance, swim and/or move without external stimuli. VER, viral encephalopathy and retinopathy
Fig. 5 Therapeutic administration of synthetic peptides decreased viral loads in the brain without additional mx gene regulation in the sea bass juveniles head-kidney infected with red-spotted grouper nervous necrosis virus (RGNNV). […] A mock-infected group was treated twice with only PBS. (A–C) Transcription levels of RGNNV cp (A) and rdrp (B) genes in the brain and (C) mx gene in the head-kidney. Data represent the relative gene expression mean ± SEM (n = 6). Different letters indicate significant differences among groups according to the ANOVA (p < 0.05)

RGNNV/SJNNV reassortant = test: In vitro antiviral (competition) assay: virus incubated with peptide, then titrated in E-11 cells; type: cell-based, RGNNV/SJNNV reassortant (367.2.2005); details: virus (MOI 0.01) incubated with 500 μg/mL peptide for 15 min at 25 °C, control virus + PBS, representative of two independent assays, Fig. 2B
Protocol: (§1) Parental RGNNV (strain It/411/96), SJNNV (strain SJNag97), and reassortant isolates (RGNNV/SJNNV, 367.2.2005; SJNNV/RGNNV, 389/I96) were used. Viruses were propagated in E − 11 cells cultured in L-15 Leibovitz medium (BioWest) supplemented with 5% FBS, 2 mM L-glutamine, and 100 IU/mL penicillin/streptomycin (Thermo Fisher Scientific) at 25 °C. Infected monolayers were incubated at 25 °C until extensive cytopathic effect (CPE) developed. Supernatants were then harvested, centrifuged, and titrated in triplicate using the end-point dilution method, expressed as TCID₅₀/mL (Reed and Müench [1938]).
(§2) For in vitro antiviral assays, viral cultures (MOI 0.01) from parental and reassortant strains were incubated with peptides (single or combined) using a non-lethal concentration previously tested (500 μg/mL; León et al. [2020]), for 15 min at 25 °C with gentle agitation. Controls were virus samples incubated with PBS (100% viral activity). Treated samples were titrated as previously. After medium removal, cells were exposed to ten-fold viral dilutions in 2% FBS. CPE was monitored daily for 10 days, and viral titres were calculated as TCID₅₀/mL (Reed and Müench [1938]) and expressed as viral titre or percent inhibition relative to controls.
Fig. 2 Designed peptides, single or combined, reduce the NNV absorption in vitro. […]

E-11 cells = test: MTT cytotoxicity test on E-11 cells; type: cell-based; details: 24 h at 25 °C, mean of n = 3, control = 100.0
Protocol: Synthetic peptides cytotoxicity on E − 11 cells was assessed using the MTT (Sigma) test with serial peptide dilutions (1000–4 µg/mL in L − 15 medium; n = 3; 24 h at 25 °C) as elsewhere (Cervera et al. [2024c]). Absorbance was measured at 570 nm (BMG Labtech); blanks lacked cells. Cell viability was calculated as the OD ratio of treated to untreated cells × 100, normalized at 690 nm.
Supplementary data S4: Cell viability (%) of E-11 cells after incubation with the synthetic peptides for 24 h. Data represent the mean ± SEM (n=3).

SJNNV = type: cell-based, striped jack nervous necrosis virus (strain SJNag97); details: virus (MOI 0.01) incubated with 500 μg/mL peptide for 15 min at 25 °C, titrated in E-11 cells; control virus + PBS; representative of two independent assays; Fig. 2B
Protocol: as §1, §2
Fig. 2 Designed peptides, single or combined, reduce the NNV absorption in vitro. NNV parental or reassortant genotypes were incubated with 500 μg/mL of the synthetic peptides for 15 min. Then, the viruses were titrated in the E − 11 cell line. Control samples consisted on virus incubated with the same amount of phosphate buffer saline. (A) Viral titer (TCID50/mL) and (B) % of virus inhibition with respect to the controls are represented. Data are representative of two independent assays. […] Each bar was matched to a substance by its colour and by the order of the legend.

RGNNV [2] = test system: RGNNV; parameters: method as in Zhu et al. [2022]; details: RGNNV-infected hybrid grouper; ref Zhu et al. [2022]; cited from earlier work
Protocol: Given RGNNV’s rapid organ colonisation (Valero et al. [2018]), treatments were administered 2 h post-infection to ensure viral establishment.

NNV = details: synthetic sea bass peptides, NNV infection; ref Cervera et al. [2024b], [2025]; cited from earlier work
Protocol: Since co-administered peptides disrupt RGNNV adsorption in vitro, we evaluated their therapeutic potential in vivo by administering them […]. […] Given RGNNV’s rapid organ colonisation (Valero et al. [2018]), treatments were administered 2 h post-infection to ensure viral establishment.

Row | Molecule | Relative percent survival (RPS) (RGNNV [1]) | RGNNV cp gene expression in the brain (RGNNV [1]) | RGNNV rdrp gene expression in the brain (RGNNV [1]) | % of virus inhibition with respect to the controls, RGNNV/SJNNV (RGNNV/SJNNV reassortant) | Viability (%) of E-11 cells, mean (E-11 cells; peptide 0.00411 mg/mL) | Viability (%) of E-11 cells, mean (E-11 cells; peptide 0.01234 mg/mL) | Viability (%) of E-11 cells, mean (E-11 cells; peptide 0.03704 mg/mL) | Viability (%) of E-11 cells, mean (E-11 cells; peptide 0.11111 mg/mL) | Viability (%) of E-11 cells, mean (E-11 cells; peptide 0.33333 mg/mL) | Viability (%) of E-11 cells, mean (E-11 cells; peptide 1.00000 mg/mL) | % of virus inhibition with respect to the controls, SJNNV (SJNNV) | Improvement of survival (RGNNV [2]) | Reduction of mortality (NNV)
1 | PRLGHAARIFQRYA-NH2 [Peptide P3] | 62.5% | lowered | lowered | 96.84% | 89.4% | 93.2% | 96.3% | 89.8% | 90.9% | 101.7% | 90% | – | –
2 | VSKASTVTGFGR-NH2 [Peptide P2] | 43.8% | no transcriptional effect | no transcriptional effect | 96.84% | 103.1% | 121.8% | 111.5% | 106.2% | 126.9% | 117.2% | 90% | – | –
3 | NC12CC3CC(CC(C3)C1)C2 [amantadine] | – | – | – | – | – | – | – | – | – | – | – | 44% | –
4 | Hepcidin | – | – | – | – | – | – | – | – | – | – | – | – | 30–35%

Reference: PMC12374861, “Synthetic Peptides Suppress Nervous Necrosis Virus Absorption and Improve Survival Rates in European Sea Bass” (Marine Biotechnology (New York, N.y.), 2025)
